Reference: ChEMBL document CHEMBL3632622, “Synthesis and biological evaluation of novel N-phenyl ureidobenzenesulfonate derivatives as potential anticancer agents. Part 2. Modulation of the ring B” (Eur J Med Chem, 2015)
Calls of active or inactive are those of the source. The calls are words filed in the database; no cut-off is given here.

Tests used:
[1] = Antiproliferative activity against human HT1080 cells assessed as growth inhibition incubated for 48 hrs by sulforhodamine B assay; format: functional, cell-based, HT-1080; conditions: Homo sapiens, HT-1080, 48 h; read-out: IC50
MCF7 = assay: Antiproliferative activity against human MCF7 cells assessed as growth inhibition incubated for 48 hrs by sulforhodamine B assay; format: functional, cell-based; conditions: MCF7, 48 h
M21 [2] = assay: Cell cycle arrest in human M21 cells assessed as accumulation at subG1 phase at 16 uM after 24 hrs by DAPI staining-based flow cytometry (reference value: 1.5%); format: functional
M21 [3] = assay: Cell cycle arrest in human M21 cells assessed as accumulation at S phase at 16 uM after 24 hrs by DAPI staining-based flow cytometry (reference value: 17.4%); format: functional
M21 [4] = assay: Antiproliferative activity against human M21 cells assessed as growth inhibition incubated for 48 hrs by sulforhodamine B assay; format: functional, cell-based; conditions: M21, 48 h
M21 [5] = assay: Cell cycle arrest in human M21 cells assessed as accumulation at G0/G1 phase at 16 uM after 24 hrs by DAPI staining-based flow cytometry (reference value: 65.1%); format: functional
HT-29 = assay: Antiproliferative activity against human HT-29 cells assessed as growth inhibition incubated for 48 hrs by sulforhodamine B assay; format: functional, cell-based; conditions: HT-29, 48 h
M21 [6] = assay: Cell cycle arrest in human M21 cells assessed as accumulation at G2/M phase at 16 uM after 24 hrs by DAPI staining-based flow cytometry (reference value: 16%); format: functional
M21 [7] = assay: Cell cycle arrest in human M21 cells assessed as accumulation at subG1 phase at 2.2 uM after 24 hrs by DAPI staining-based flow cytometry (reference value: 1.5%); format: functional
M21 [8] = assay: Cell cycle arrest in human M21 cells assessed as accumulation at S phase at 2.2 uM after 24 hrs by DAPI staining-based flow cytometry (reference value: 17.4%); format: functional
M21 [9] = assay: Cell cycle arrest in human M21 cells assessed as accumulation at G0/G1 phase at 2.2 uM after 24 hrs by DAPI staining-based flow cytometry (reference value: 65.1%); format: functional
M21 [10] = assay: Cell cycle arrest in human M21 cells assessed as accumulation at G2/M phase at 2.2 uM after 24 hrs by DAPI staining-based flow cytometry (reference value: 16%); format: functional
M21 [11] = assay: Cell cycle arrest in human M21 cells assessed as accumulation at subG1 phase at 6.5 uM after 24 hrs by DAPI staining-based flow cytometry (reference value: 1.5%); format: functional
M21 [12] = assay: Cell cycle arrest in human M21 cells assessed as accumulation at G0/G1 phase at 6.5 uM after 24 hrs by DAPI staining-based flow cytometry (reference value: 65.1%); format: functional
M21 [13] = assay: Cell cycle arrest in human M21 cells assessed as accumulation at G2/M phase at 6.5 uM after 24 hrs by DAPI staining-based flow cytometry (reference value: 16%); format: functional
M21 [14] = assay: Cell cycle arrest in human M21 cells assessed as accumulation at S phase at 6.5 uM after 24 hrs by DAPI staining-based flow cytometry (reference value: 17.4%); format: functional
M21 [15] = assay: Cell cycle arrest in human M21 cells assessed as accumulation at G0/G1 phase at 1.5 uM after 24 hrs by DAPI staining-based flow cytometry (reference value: 65.1%); format: functional
M21 [16] = assay: Cell cycle arrest in human M21 cells assessed as accumulation at G2/M phase at 1.5 uM after 24 hrs by DAPI staining-based flow cytometry (reference value: 16%); format: functional
M21 [17] = assay: Cell cycle arrest in human M21 cells assessed as accumulation at subG1 phase at 1.5 uM after 24 hrs by DAPI staining-based flow cytometry (reference value: 1.5%); format: functional
M21 [18] = assay: Cell cycle arrest in human M21 cells assessed as accumulation at S phase at 1.5 uM after 24 hrs by DAPI staining-based flow cytometry (reference value: 17.4%); format: functional
M21 [19] = assay: Induction DNA DSBs in human M21 cells assessed as increase in gamma H2AX foci at 0.75 uM incubated for 24 hrs by DAPI staining based immunocytochemistry; format: cell-based
M21 [20] = assay: Cell cycle arrest in human M21 cells assessed as accumulation at G0/G1 phase at 5.9 uM after 24 hrs by DAPI staining-based flow cytometry (reference value: 65.1%); format: functional
M21 [21] = assay: Cell cycle arrest in human M21 cells assessed as accumulation at G2/M phase at 5.9 uM after 24 hrs by DAPI staining-based flow cytometry (reference value: 16%); format: functional
M21 [22] = assay: Induction DNA DSBs in human M21 cells assessed as increase in gamma H2AX foci at 15 uM incubated for 24 hrs by DAPI staining based immunocytochemistry; format: cell-based
M21 [23] = assay: Cell cycle arrest in human M21 cells assessed as accumulation at S phase at 5.9 uM after 24 hrs by DAPI staining-based flow cytometry (reference value: 17.4%); format: functional
M21 [24] = assay: Cell cycle arrest in human M21 cells assessed as accumulation at subG1 phase at 5.9 uM after 24 hrs by DAPI staining-based flow cytometry (reference value: 1.5%); format: functional
M21 [25] = assay: Cell cycle arrest in human M21 cells assessed as accumulation at G2/M phase at 5.1 uM after 24 hrs by DAPI staining-based flow cytometry (reference value: 16%); format: functional
M21 [26] = assay: Cell cycle arrest in human M21 cells assessed as accumulation at subG1 phase at 5.1 uM after 24 hrs by DAPI staining-based flow cytometry (reference value: 1.5%); format: functional
M21 [27] = assay: Cell cycle arrest in human M21 cells assessed as accumulation at G0/G1 phase at 5.1 uM after 24 hrs by DAPI staining-based flow cytometry (reference value: 65.1%); format: functional
M21 [28] = assay: Cell cycle arrest in human M21 cells assessed as accumulation at S phase at 5.1 uM after 24 hrs by DAPI staining-based flow cytometry (reference value: 17.4%); format: functional

SMILES: O=C(NCCCl)Nc1ccc(S(=O)(=O)Oc2c(F)cccc2F)cc1
- IC50 [1]: 3200 nM
- IC50 (MCF7): 4800 nM
- Activity (M21 [2]): 8.7%
- Activity (M21 [3]): 15.1%
- IC50 (M21 [4]): 3200 nM
- Activity (M21 [5]): 29.4%
- IC50 (HT-29): 4100 nM
- Activity (M21 [6]): 46.8%

SMILES: CCOc1ccccc1OS(=O)(=O)c1ccc(NC(=O)NCCCl)cc1
- IC50 [1]: 2200 nM
- IC50 (MCF7): 1700 nM
- IC50 (M21 [4]): 1100 nM
- Activity (M21 [7]): 6.7%
- Activity (M21 [8]): 11.8%
- Activity (M21 [9]): 28.8%
- IC50 (HT-29): 1400 nM
- Activity (M21 [10]): 52.7%

SMILES: O=C(NCCCl)Nc1ccc(S(=O)(=O)Oc2c(Cl)cc(Cl)cc2Cl)cc1
- Activity (M21 [11]): 8.5%
- IC50 [1]: 1500 nM
- IC50 (MCF7): 1700 nM
- Activity (M21 [12]): 11.6%
- Activity (M21 [13]): 72.6%
- IC50 (M21 [4]): 1300 nM
- Activity (M21 [14]): 7.3%
- IC50 (HT-29): 1500 nM

SMILES: CC[C@@]1(O)C(=O)OCc2c1cc1n(c2=O)Cc2cc3c(CN(C)C)c(O)ccc3nc2-1 [TOPOTECAN]
- IC50 [1]: 180 nM
- Activity (M21 [15]): 6.4%
- IC50 (MCF7): 24 nM
- IC50 (M21 [4]): 1400 nM
- Activity (M21 [16]): 60.4%
- Activity (M21 [17]): 1.4%
- Activity (M21 [18]): 31.8%
- Activity (M21 [19]): Active
- IC50 (HT-29): 230 nM

SMILES: O=C(NCCCl)Nc1ccc(S(=O)(=O)Oc2ccccc2[N+](=O)[O-])cc1
- IC50 [1]: 2400 nM
- IC50 (MCF7): 7400 nM
- Activity (M21 [20]): 32.5%
- IC50 (M21 [4]): 3900 nM
- Activity (M21 [21]): 23.1%
- Activity (M21 [22]): Active
- Activity (M21 [23]): 43%
- Activity (M21 [24]): 1.4%
- IC50 (HT-29): 5700 nM

SMILES: O=C(NCCCl)Nc1ccc(S(=O)(=O)Oc2cc(Cl)c(Cl)cc2Cl)cc1
- Activity (M21 [25]): 82.6%
- IC50 [1]: 1400 nM
- IC50 (MCF7): 1200 nM
- Activity (M21 [26]): 5.5%
- IC50 (M21 [4]): 1000 nM
- Activity (M21 [27]): 3.3%
- IC50 (HT-29): 1200 nM
- Activity (M21 [28]): 8.6%
